# Source: the kinase profiling compilation of Christmann-Franck et al. (2016)
# How the values were obtained:
# Details in all cases: compound 10.0 µM
# [1] = biological target: ACVR1B (human) (UniProt P36896)
# [2] = biological target: BRSK2 (human) (UniProt Q8IWQ3)
# [3] = biological target: CAMK4 (human) (UniProt Q16566)
# [4] = biological target: CASK (human) (UniProt O14936)
# [5] = biological target: CDC2L2 (human) (UniProt Q9UQ88)
# [6] = biological target: CDK18 (human) (UniProt Q07002)
# [7] = biological target: DCLK3 (human) (UniProt Q9C098)
# [8] = biological target: FER (human) (UniProt P16591)
# [9] = biological target: FGFR2 (human) (UniProt P21802)
# [10] = biological target: FLT4 (human) (UniProt P35916)
# [11] = biological target: HUNK (human) (UniProt P57058)
# [12] = biological target: JAK1 JH1 catalytic (human) (UniProt P23458)
# [13] = biological target: JAK3 JH1 catalytic (human) (UniProt P52333)
# [14] = biological target: LRRK2 (human) (UniProt Q5S007)
# [15] = biological target: MAP2K4 (human) (UniProt P45985)
# [16] = biological target: MAP2K5 (human) (UniProt Q13163)
# [17] = biological target: MAP3K13 (human) (UniProt O43283)
# [18] = biological target: MAP4K2 (human) (UniProt Q12851)
# MAP4K2 (human), sequence (Q12851 whole entry, looked up): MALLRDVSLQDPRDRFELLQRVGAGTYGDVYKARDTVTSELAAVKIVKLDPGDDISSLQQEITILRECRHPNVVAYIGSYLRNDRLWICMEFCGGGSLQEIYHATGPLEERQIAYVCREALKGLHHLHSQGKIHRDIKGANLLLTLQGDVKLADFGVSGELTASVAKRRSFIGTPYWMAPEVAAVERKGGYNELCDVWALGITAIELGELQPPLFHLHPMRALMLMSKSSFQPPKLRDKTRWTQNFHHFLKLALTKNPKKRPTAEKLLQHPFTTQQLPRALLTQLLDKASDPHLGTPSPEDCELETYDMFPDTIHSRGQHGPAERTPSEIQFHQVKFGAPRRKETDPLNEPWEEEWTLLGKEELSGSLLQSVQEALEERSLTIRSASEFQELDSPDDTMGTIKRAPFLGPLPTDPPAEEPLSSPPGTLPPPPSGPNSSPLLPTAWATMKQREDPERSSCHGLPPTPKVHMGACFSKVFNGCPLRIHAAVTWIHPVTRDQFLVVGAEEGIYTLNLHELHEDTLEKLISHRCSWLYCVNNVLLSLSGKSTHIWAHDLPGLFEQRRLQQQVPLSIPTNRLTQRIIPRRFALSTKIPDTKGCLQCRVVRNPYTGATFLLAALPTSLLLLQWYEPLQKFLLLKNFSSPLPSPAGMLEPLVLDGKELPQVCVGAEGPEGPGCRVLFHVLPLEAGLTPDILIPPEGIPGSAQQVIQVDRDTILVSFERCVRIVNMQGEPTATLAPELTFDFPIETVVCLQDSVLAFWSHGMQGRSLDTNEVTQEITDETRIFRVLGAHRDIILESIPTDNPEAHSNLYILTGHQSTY
# [19] = biological target: MAPK1 (human) (UniProt P28482)
# [20] = biological target: MAPK10 (human) (UniProt P53779)
# [21] = biological target: MAPK14 (human) (UniProt Q16539)
# MAPK14 (human), sequence (Q16539 whole entry, looked up): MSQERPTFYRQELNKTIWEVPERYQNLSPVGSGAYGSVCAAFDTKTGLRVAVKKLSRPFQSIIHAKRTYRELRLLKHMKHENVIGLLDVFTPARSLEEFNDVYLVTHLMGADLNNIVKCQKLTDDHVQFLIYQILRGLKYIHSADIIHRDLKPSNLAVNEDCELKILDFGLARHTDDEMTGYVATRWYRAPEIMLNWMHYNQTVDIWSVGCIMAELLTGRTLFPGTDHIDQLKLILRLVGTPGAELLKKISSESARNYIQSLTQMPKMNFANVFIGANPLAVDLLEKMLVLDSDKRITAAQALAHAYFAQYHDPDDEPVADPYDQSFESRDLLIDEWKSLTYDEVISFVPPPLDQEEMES
# [22] = biological target: MARK2 (human) (UniProt Q7KZI7)
# [23] = biological target: MARK3 (human) (UniProt P27448)
# [24] = biological target: MELK (human) (UniProt Q14680)
# [25] = biological target: MINK1 (human) (UniProt Q8N4C8)
# [26] = biological target: MST4 (human) (UniProt Q9P289)
# MST4 (human), sequence (Q9P289 whole entry, looked up): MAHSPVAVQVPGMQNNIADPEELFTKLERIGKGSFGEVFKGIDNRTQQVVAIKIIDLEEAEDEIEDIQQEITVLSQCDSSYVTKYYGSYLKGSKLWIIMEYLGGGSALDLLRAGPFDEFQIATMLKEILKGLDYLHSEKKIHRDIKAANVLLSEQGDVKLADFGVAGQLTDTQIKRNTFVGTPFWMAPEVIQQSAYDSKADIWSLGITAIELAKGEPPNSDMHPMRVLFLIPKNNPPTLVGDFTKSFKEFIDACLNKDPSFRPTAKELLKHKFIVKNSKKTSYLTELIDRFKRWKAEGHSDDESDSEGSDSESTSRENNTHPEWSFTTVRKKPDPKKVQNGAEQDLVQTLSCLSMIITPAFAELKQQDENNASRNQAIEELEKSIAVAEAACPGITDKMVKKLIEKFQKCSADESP
# [27] = biological target: NEK4 (human) (UniProt P51957)
# [28] = biological target: NUAK1 (human) (UniProt O60285)
# [29] = biological target: OXSR1 (human) (UniProt O95747)
# [30] = biological target: PIP5K1C (human) (UniProt O60331)
# PIP5K1C (human), sequence (O60331 whole entry, looked up): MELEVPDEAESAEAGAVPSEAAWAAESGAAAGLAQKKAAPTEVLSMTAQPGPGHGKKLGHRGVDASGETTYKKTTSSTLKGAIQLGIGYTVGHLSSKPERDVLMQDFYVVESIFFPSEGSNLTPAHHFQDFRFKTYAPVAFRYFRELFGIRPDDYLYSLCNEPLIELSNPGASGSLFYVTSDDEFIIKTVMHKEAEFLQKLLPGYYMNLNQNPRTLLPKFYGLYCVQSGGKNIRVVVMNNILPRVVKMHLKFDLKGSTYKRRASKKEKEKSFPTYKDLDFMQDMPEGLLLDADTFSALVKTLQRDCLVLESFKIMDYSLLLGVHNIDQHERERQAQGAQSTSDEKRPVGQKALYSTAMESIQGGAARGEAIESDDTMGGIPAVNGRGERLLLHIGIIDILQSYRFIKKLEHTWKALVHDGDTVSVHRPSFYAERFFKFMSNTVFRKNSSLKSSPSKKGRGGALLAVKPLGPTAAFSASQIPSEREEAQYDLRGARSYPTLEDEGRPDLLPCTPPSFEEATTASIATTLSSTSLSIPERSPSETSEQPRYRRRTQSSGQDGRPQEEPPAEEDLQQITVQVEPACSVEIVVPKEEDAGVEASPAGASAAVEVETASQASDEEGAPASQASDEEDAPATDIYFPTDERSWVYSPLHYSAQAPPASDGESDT
# [31] = biological target: PKMYT1 (human) (UniProt Q99640)
# [32] = biological target: PKN3 (M.tuberculosis) (UniProt Q6P5Z2)
# [33] = biological target: PRKD1 (human) (UniProt Q15139)
# PRKD1 (human), sequence (Q15139 whole entry, looked up): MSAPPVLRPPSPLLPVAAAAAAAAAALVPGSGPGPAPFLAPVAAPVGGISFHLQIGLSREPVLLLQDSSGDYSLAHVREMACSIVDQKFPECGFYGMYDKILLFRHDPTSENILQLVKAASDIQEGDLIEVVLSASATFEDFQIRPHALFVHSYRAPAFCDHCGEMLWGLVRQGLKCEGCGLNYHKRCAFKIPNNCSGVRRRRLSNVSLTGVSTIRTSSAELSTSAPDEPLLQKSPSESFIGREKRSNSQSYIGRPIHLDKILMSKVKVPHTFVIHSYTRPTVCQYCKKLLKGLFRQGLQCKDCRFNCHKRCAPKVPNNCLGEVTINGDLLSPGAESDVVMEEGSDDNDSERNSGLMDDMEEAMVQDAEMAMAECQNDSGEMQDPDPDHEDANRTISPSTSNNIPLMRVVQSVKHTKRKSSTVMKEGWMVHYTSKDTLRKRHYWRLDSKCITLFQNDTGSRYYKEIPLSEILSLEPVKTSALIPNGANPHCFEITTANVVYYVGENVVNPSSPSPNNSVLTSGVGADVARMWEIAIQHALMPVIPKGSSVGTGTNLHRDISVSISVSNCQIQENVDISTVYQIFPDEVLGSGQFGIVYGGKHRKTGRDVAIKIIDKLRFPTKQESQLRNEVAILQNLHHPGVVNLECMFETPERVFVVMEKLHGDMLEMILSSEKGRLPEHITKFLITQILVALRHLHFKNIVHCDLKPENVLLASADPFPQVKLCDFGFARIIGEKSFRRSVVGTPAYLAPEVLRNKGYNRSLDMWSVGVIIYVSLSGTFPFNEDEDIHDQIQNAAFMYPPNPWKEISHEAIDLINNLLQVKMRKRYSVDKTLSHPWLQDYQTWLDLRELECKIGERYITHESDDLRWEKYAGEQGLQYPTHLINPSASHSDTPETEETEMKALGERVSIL
# [34] = biological target: PTK2 (human) (UniProt Q05397)
# [35] = biological target: RAF1 (human) (UniProt P04049)
# [36] = biological target: RPS6KA4 KD2 (human) (UniProt O75676)
# RPS6KA4 KD2 (human), sequence (O75676 whole entry, looked up): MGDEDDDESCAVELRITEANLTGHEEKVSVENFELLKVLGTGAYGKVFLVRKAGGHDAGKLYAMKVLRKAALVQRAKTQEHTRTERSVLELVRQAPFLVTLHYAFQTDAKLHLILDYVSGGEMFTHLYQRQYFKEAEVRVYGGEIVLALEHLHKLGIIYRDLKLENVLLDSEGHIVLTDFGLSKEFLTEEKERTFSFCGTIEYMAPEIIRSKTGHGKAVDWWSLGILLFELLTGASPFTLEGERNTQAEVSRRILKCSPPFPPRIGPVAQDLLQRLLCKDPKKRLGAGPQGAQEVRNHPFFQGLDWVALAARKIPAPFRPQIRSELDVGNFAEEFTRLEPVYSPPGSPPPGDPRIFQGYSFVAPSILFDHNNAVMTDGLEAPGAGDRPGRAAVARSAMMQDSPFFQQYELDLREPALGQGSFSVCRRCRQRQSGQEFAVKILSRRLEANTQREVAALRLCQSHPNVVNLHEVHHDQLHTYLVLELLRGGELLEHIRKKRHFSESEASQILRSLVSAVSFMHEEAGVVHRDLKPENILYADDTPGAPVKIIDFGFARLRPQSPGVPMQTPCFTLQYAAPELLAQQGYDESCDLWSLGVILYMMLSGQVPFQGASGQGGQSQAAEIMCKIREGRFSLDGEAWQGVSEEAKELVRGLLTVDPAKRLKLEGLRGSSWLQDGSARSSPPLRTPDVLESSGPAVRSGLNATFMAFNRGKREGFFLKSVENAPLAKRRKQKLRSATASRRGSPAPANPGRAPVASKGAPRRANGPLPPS
# [37] = biological target: RPS6KA6 KD1 (human) (UniProt Q9UK32)
# [38] = biological target: SIK2 (human) (UniProt Q9H0K1)
# [39] = biological target: STK3 (human) (UniProt Q13188)
# [40] = biological target: TEC (human) (UniProt P42680)
# [41] = biological target: VRK2 (human) (UniProt Q86Y07)
# CASK (human), sequence (O14936 whole entry, looked up): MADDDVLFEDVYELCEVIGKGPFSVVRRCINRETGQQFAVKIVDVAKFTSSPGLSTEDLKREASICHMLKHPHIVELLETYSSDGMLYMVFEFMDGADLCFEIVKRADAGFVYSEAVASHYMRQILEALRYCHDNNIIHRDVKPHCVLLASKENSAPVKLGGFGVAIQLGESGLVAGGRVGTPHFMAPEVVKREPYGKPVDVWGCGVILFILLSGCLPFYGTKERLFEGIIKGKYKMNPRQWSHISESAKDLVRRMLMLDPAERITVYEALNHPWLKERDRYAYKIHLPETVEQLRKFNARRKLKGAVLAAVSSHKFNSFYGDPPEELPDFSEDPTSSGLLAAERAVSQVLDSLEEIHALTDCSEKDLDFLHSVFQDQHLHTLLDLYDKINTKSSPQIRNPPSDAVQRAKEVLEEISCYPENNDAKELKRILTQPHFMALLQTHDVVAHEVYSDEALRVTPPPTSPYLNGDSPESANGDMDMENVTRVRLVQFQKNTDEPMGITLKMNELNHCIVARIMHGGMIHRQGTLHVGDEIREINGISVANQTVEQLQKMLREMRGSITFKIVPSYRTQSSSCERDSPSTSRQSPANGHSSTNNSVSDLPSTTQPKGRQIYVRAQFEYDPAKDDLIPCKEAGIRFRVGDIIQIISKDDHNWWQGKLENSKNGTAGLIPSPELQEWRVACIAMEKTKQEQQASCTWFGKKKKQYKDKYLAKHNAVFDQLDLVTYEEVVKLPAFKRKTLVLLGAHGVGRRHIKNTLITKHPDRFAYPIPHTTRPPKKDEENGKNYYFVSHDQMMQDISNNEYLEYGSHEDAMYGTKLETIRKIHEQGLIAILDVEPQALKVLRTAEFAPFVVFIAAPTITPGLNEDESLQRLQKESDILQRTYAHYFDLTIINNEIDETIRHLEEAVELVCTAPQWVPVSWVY
structure (smiles),measurement,setting,value
CNC(=O)c1cc(Oc2ccc(NC(=O)Nc3ccc(Cl)c(C(F)(F)F)c3)cc2)ccn1,per cent of control,[1],56%
same,per cent of control,[2],98%
same,per cent of control,[3],42%
same,per cent of control,[4],100%
same,per cent of control,[5],77%
same,per cent of control,[6],57%
same,per cent of control,[7],100%
same,per cent of control,[8],77%
same,per cent of control,[9],6.4%
same,per cent of control,[10],0%
same,per cent of control,[11],90%
same,per cent of control,[12],42%
same,per cent of control,[13],100%
same,per cent of control,[14],86%
same,per cent of control,[15],85%
same,per cent of control,[16],0.35%
same,per cent of control,[17],88%
same,per cent of control,[18],93%
same,per cent of control,[19],100%
same,per cent of control,[20],90%
same,per cent of control,[21],0.1%
same,per cent of control,[22],67%
same,per cent of control,[23],86%
same,per cent of control,[24],83%
same,per cent of control,[25],80%
same,per cent of control,[26],99%
same,per cent of control,[27],100%
same,per cent of control,[28],74%
same,per cent of control,[29],100%
same,per cent of control,[30],79%
same,per cent of control,[31],93%
same,residual activity,[32],100%
same,per cent of control,[33],100%
same,per cent of control,[34],100%
same,per cent of control,[35],0.7%
same,per cent of control,[36],100%
same,per cent of control,[37],100%
same,per cent of control,[38],74%
same,per cent of control,[39],100%
same,per cent of control,[40],100%
same,per cent of control,[41],100%
CNC(=O)c1cc(Oc2ccc(NC(=O)Nc3ccc(Cl)c(C(F)(F)F)c3)cc2)cc[n+]1[O-],per cent of control,[1],44%
same,per cent of control,[2],100%
same,per cent of control,[3],54%
same,per cent of control,[4],100%
same,per cent of control,[5],99%
same,per cent of control,[6],26%
same,per cent of control,[7],100%
same,per cent of control,[8],64%
same,per cent of control,[9],8.9%
same,per cent of control,[10],0%
same,per cent of control,[11],74%
same,per cent of control,[12],50%
same,per cent of control,[13],78%
same,per cent of control,[14],80%
same,per cent of control,[15],60%
same,per cent of control,[16],0.1%
same,per cent of control,[17],68%
same,per cent of control,[18],66%
same,per cent of control,[19],100%
same,per cent of control,[20],4.4%
same,per cent of control,[21],0%
same,per cent of control,[22],87%
same,per cent of control,[23],86%
same,per cent of control,[24],65%
same,per cent of control,[25],2.4%
same,per cent of control,[26],49%
same,per cent of control,[27],93%
same,per cent of control,[28],100%
same,per cent of control,[29],100%
same,per cent of control,[30],66%
same,per cent of control,[31],100%
same,residual activity,[32],100%
same,per cent of control,[33],63%
same,per cent of control,[34],97%
same,per cent of control,[35],0.45%
same,per cent of control,[36],98%
same,per cent of control,[37],97%
same,per cent of control,[38],66%
same,per cent of control,[39],100%
same,per cent of control,[40],68%
same,per cent of control,[41],100%
